Experiment [1] deals with A. baumannii 1261 (clinical isolate). As to the kind of experiment: Clinical isolate exposed to antibiotic concentration combinations in 4×4 array, tracked over 24 h on 216Dx. In kind it is cell-based, Acinetobacter baumannii. The settings on record: clinical isolate of A. baumannii (multidrug resistant). On the procedure:
FIG. 3. A. baumannii 1261 was exposed to 16 different concentration combinations of levofloxacin (L) and amikacin (A). Each sequence of points represents the time course of the bacterial population (baseline inoculum approximately 2-5×10^5 CFU/ml) exposed to one levofloxacin/amikacin concentration combination (e.g., levofloxacin 20 mg/l+amikacin 30 mg/ is shown in hollow squares). Bacteria exposed to drugs with no activity produce profiles that superimpose on those from placebo controls; antimicrobial activity manifests as a delay or absence of growth.
Ineffective antibiotics may have acceptable activity when combined. A clinical isolate of A. baumannii was exposed to different antibiotic concentration combinations in a 4×4 array, and the bacterial burden was tracked over 24 h using the prototype technical platform 216Dx. While the isolate is resistant to levofloxacin, amikacin and cefepime (multidrug resistant), bacterial growth was delayed in selected combinations (FIG. 3) and the profiles were reasonably captured by the mathematical modeling framework (1) shown above (FIG. 1, right).

The test system of experiment [2] is Acinetobacter baumannii (AB), ATCC BAA747. Briefly: Susceptibility (MIC). In kind it is cell-based. The settings on record: ATCCBAA747, wild type AB ATCC BAA747, previously found. On the procedure: Microorganism. A laboratory reference wild type Acinetobacter baumannii (AB), ATCC BAA747, was utilized in the study. The bacteria were stored at −70° C. in Protect® vials. Before the experiment, the bacteria were subcultured at least twice on 5% blood agar plates for 24 hours at 35° C. and fresh colonies were used.

≈ marks a conversion by molar mass, not a printed value.

Turning to `NCC[C@H](O)C(=O)N[C@@H]1C[C@H](N)[C@@H](O[C@H]2O[C@H](CN)[C@@H](O)[C@H](O)[C@H]2O)[C@H](O)[C@H]1O[C@H]1O[C@H](CO)[C@@H](O)[C@H](N)[C@H]1O` [amikacin], the “susceptibility phenotype of the isolate” value in experiment [1] was “resistant”.
On to `CO/N=C(\C(=O)N[C@@H]1C(=O)N2C(C(=O)[O-])=C(C[N+]3(C)CCCC3)CS[C@H]12)c1csc(N)n1` [cefepime], for which, in experiment [1], the “susceptibility phenotype of the isolate” value was “resistant”.
Take `C[C@H]1COc2c(N3CCN(C)CC3)c(F)cc3c(=O)c(C(=O)O)cn1c23` [LVX, Levofloxacin]: inhibition of growth in experiment [2] (MIC) required 0.25 µg/mL (≈ 0.692 µM).

What is called MIC is the least concentration at which growth counts as inhibited. Low values mean inhibition by little substance, high ones a need for much substance.

The values above are taken from patent publication US20230044633A1, “OPTICAL BASED METHODS FOR DETERMINING ANTIMICROBIAL DOSING REGIMENS” (University of Houston System, priority 2019, published 2023).
